Assay results taken from US20260256694A1, “Multilamellar Vesicle Drug Formulation” (Nanostar Pharmaceuticals Ltd., priority 2022, published 2026).

Test: Pharmacokinetics after oral gavage in mice
Conditions: 10 mg/kg
Procedure: Concentrations of drugs and lipids were simultaneously quantified by a ACQUITY UPLC H-Class System (Waters, Milford, MA)^15. The mobile phase was composed of solvent A: 0.1% trifluoroacetic acid (TFA) in water and solvent B: 0.1% TFA in methanol. […] Concentrations of drugs and lipids were measured by integrating the peak area under the curve and compared to the standard curves. For plasma CQ quantitation, a Waters QDa mass spectrometry detector was used. Ionization was carried out at 250° C.
MLV-CQ drug formulation of the present invention or free CQ (dissolved in saline) was administered through oral gavage to mice at 10 mg CQ/kg (50 mg lipid/kg). […] Plasma was isolated by centrifugation at 4° C. for 10 min at 10,000 g. Forty-five L of plasma was mixed with 300 μL ethanol, vortexed for 30 s, placed on ice for 30 min, and centrifuged twice at 12,500 rpm for 5 min. The supernatant (280 μL) was collected, lyophilized, and reconstituted in 45 μL ethanol. Ten L of the sample was then injected into the UPLC to measure CQ concentration. Pharmacokinetics parameters and AUC were analyzed using PK solver^16 and GraphPad Prisim version 8.0 (GraphPad Software, San Diego, CA, USA), respectively.

CQ in plasma at 24 h: completely eliminated
SMILES: CCN(CC)CCCC(C)Nc1ccnc2cc(Cl)ccc12 (stereo not shown) [CQ solution, chloroquine diphosphate]
